Key:
SNB-19 = assay: Inhibition of cell proliferation (MTT); assay type: cell-based; conditions: Homo sapiens; SNB-19, CNS; 48 hours
Protocol: (§1) Inhibition of cell proliferation is determined in human tumor cell lines. Innoculation density and doubling times for specific cell lines are listed at World Wide Web URL “dtp.nci.nih.gov/docs/misc/common_files/cell_list.html.”
(§2) • 1. Plate adherent cells the day before starting the experiment in 180 μl growth media (see list hereafter). • 2. Day of experiment, count and plate suspension cells in 180 μl growth media (see list on next page). • 3. Make 10× Compound, vehicle, and chemotherapeutic cocktail • a. Compound (1× to 10×) • i. 10 μM Compound to 100 μM • ii. 3 μM Compound to 30 μM • iii. 1 μM Compound to 10 μM • iv. 0.3 μM Compound to 3 μM • v. 0.1 μM Compound to 1 μM • b. Vehicle • i. PBS, equivalent to the volume used for 10 μM Compound (1× is ˜0.06% PBS) • c. Chemotherapeutic cocktail (1× to 10×): • i. 1 μM Velcade to 10 μM • ii. 100 μM Etoposide to 1 mM • iii. 20 μM Taxol to 200 μM • 4. Add 20 μl of the 10× compound/vehicle/chemotherapeutic cocktail to cells. • 5. Incubate at 37° C., 5% CO2 for 48 hours. • 6. Aspirate media. For suspension cells, spin plate at 1500 RPM for 10 minutes. Use a multichannel pipettor to slowly remove media. • 7. Add 200 μl of Thiazolyl Blue Tetrazolium Bromide (MTT) to each well: 0.863 mg/ml MTT in growth media.
(§3) Proliferation of several cancer cells was inhibited by compound TA1-1B (which is a particular mixture of the isomers represented by TA1-1A), as shown in the following table (Table 1). The value EC50 is the amount of Compound TA1-1B that results in 50% inhibition of proliferation of the indicated cell type.

PC-3 = assay: Inhibition of cell proliferation (MTT); assay type: cell-based; conditions: Homo sapiens; PC-3, Prostate; 48 hours
Protocol: as §1, §2, §3

P116 = assay: Inhibition of cell proliferation (MTT); assay type: cell-based; conditions: Homo sapiens; P116, Leukemia; 48 hours
Protocol: as §1, §2, §3

Hut78 = assay: Inhibition of cell proliferation (MTT); assay type: cell-based; conditions: Homo sapiens; Hut78, Lymphoma; 48 hours
Protocol: as §1, §2, §3

A3 = assay: Inhibition of cell proliferation (MTT); assay type: cell-based; conditions: Homo sapiens; A3, Leukemia; 48 hours
Protocol: as §1, §2, §3

D1-1 = assay: Inhibition of cell proliferation (MTT); assay type: cell-based; conditions: Homo sapiens; D1-1, Leukemia; 48 hours
Protocol: as §1, §2, §3

UACC-257 = assay: Inhibition of cell proliferation (MTT); assay type: cell-based; conditions: Homo sapiens; UACC-257, Melanoma; 48 hours
Protocol: as §1, §2, §3

U937 = assay: Inhibition of cell proliferation (MTT); assay type: cell-based; conditions: Homo sapiens, U-937; U937, Lymphoma; 48 hours
Protocol: as §1, §2, §3

RS1184 = assay: Inhibition of cell proliferation (MTT); assay type: cell-based; conditions: Homo sapiens; RS1184, Lymphoma; 48 hours
Protocol: as §1, §2, §3

Jgamma-1 = assay: Inhibition of cell proliferation (MTT); assay type: cell-based; conditions: Homo sapiens, J.gamma1; Jgamma-1, Leukemia; 48 hours
Protocol: as §1, §2, §3

MOLT-3 = assay: Inhibition of cell proliferation (MTT); assay type: cell-based; conditions: Homo sapiens; MOLT-3, Leukemia; 48 hours
Protocol: as §1, §2, §3

GDM-1 = assay: Inhibition of cell proliferation (MTT); assay type: cell-based; conditions: Homo sapiens; GDM-1, Leukemia; 48 hours
Protocol: as §1, §2, §3

RS4-11 = assay: Inhibition of cell proliferation (MTT); assay type: cell-based; conditions: Homo sapiens; RS4-11, Leukemia; 48 hours
Protocol: as §1, §2, §3

BT-549 = assay: Inhibition of cell proliferation (MTT); assay type: cell-based; conditions: Homo sapiens; BT-549, Breast; 48 hours
Protocol: as §1, §2, §3

M14 = assay: Inhibition of cell proliferation (MTT); assay type: cell-based; conditions: Homo sapiens; M14, Melanoma; 48 hours
Protocol: as §1, §2, §3

MALME-3M = assay: Inhibition of cell proliferation (MTT); assay type: cell-based; conditions: Homo sapiens, Melanoma, 48 hours
Protocol: as §1, §2, §3

NCI-H322M = assay: Inhibition of cell proliferation (MTT); assay type: cell-based; conditions: Homo sapiens, Non Small Cell Lung, 48 hours
Protocol: as §1, §2, §3

SF-539 = assay: Inhibition of cell proliferation (MTT); assay type: cell-based; conditions: Homo sapiens; SF-539, CNS; 48 hours
Protocol: as §1, §2, §3

NCI-H522 = assay: Inhibition of cell proliferation (MTT); assay type: cell-based; conditions: Homo sapiens; NCI-H522, Non Small Cell Lung; 48 hours
Protocol: as §1, §2, §3

TF-1 = assay: Inhibition of cell proliferation (MTT); assay type: cell-based; conditions: Homo sapiens; TF-1, Leukemia; 48 hours
Protocol: as §1, §2, §3

Raji = assay: Inhibition of cell proliferation (MTT); assay type: cell-based; conditions: Homo sapiens, Lymphoma, 48 hours
Protocol: as §1, §2, §3

SNB-75 = assay: Inhibition of cell proliferation (MTT); assay type: cell-based; conditions: Homo sapiens; SNB-75, CNS; 48 hours
Protocol: as §1, §2, §3

NC37 = assay: Inhibition of cell proliferation (MTT); assay type: cell-based; conditions: Homo sapiens, NC-37; NC37, Lymphoma; 48 hours
Protocol: as §1, §2, §3

M1 Muscarinic receptor = M1 Muscarinic receptor (Homo sapiens, UniProt P11229); assay: Receptor binding
[1] = system: 5-HT1B 5-hydroxytryptamine (serotonin) receptor 1B; assay: Receptor binding
CCRF-CEM = assay: Inhibition of cell proliferation (MTT); assay type: cell-based, human; conditions: Leukemia
Protocol: as §1, §2, §3

SR = assay: Inhibition of cell proliferation (MTT); assay type: cell-based, human; conditions: Leukemia
Protocol: as §1, §2, §3

HOP-92 = assay: Inhibition of cell proliferation (MTT); assay type: cell-based, human; conditions: HOP-92, Non Small Cell Lung
Protocol: as §1, §2, §3

M4 Muscarinic receptor = M4 Muscarinic receptor (Homo sapiens, UniProt P08173); assay: Receptor binding
M4 Muscarinic receptor, sequence (P08173 whole entry): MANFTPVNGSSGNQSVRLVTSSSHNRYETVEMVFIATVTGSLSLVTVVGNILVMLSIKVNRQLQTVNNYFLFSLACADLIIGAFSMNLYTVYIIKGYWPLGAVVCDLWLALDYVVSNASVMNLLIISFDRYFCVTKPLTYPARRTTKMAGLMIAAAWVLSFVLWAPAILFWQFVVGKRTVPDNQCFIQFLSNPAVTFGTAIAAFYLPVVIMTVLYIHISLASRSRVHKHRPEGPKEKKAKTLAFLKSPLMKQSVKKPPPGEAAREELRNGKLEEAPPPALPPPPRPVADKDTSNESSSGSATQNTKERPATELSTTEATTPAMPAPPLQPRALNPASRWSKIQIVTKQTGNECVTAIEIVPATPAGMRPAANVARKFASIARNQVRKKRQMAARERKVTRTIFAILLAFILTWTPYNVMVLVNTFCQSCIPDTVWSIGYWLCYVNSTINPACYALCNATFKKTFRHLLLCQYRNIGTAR

M1 Muscarinic receptor, sequence (P11229 whole entry): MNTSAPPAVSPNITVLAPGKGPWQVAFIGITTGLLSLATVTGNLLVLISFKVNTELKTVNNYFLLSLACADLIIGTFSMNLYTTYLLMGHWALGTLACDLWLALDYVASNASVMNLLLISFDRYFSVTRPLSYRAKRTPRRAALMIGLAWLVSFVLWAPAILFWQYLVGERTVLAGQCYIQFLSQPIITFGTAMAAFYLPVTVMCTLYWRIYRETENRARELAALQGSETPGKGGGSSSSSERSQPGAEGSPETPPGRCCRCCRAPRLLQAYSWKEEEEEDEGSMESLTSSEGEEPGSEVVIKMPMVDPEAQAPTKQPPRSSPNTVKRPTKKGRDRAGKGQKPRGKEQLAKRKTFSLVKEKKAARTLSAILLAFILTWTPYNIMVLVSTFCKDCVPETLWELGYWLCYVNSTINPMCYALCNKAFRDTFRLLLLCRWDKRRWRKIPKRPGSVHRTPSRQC

Question: How did the EC50 (SNB-19) turn out when `CN1CCC[C@H]1CCNC(=O)c1cn2c3c(c(N4CCC(c5cnccn5)C4)c(F)cc3c1=O)Oc1cc3ccccc3cc1-2` (some centres unmarked) [TA1-1B] was run?
Answer: 4.63 µM

Question: What about the EC50 (PC-3) of the same compound?
Answer: 4.96 µM

Question: What about the EC50 (P116) of the same compound?
Answer: 1230 nM

Question: And the EC50 (Hut78)?
Answer: 3.3 µM

Question: And the EC50 (A3)?
Answer: 3.63 µM

Question: What about the EC50 (D1-1) of the same compound?
Answer: 4.16 µM

Question: And the EC50 (UACC-257)?
Answer: 5.1 µM

Question: What about the EC50 (U937) of the same compound?
Answer: 4.54 µM

Question: What about the EC50 (RS1184) of the same compound?
Answer: 3.25 µM

Question: What about the EC50 (Jgamma-1) of the same compound?
Answer: 1720 nM

Question: What about the EC50 (MOLT-3) of the same compound?
Answer: 1140 nM

Question: What about the EC50 (GDM-1) of the same compound?
Answer: 1260 nM

Question: And the EC50 (RS4-11)?
Answer: 550 nM

Question: What about the EC50 (BT-549) of the same compound?
Answer: 1800 nM

Question: What about the EC50 (M14) of the same compound?
Answer: 4.98 µM

Question: What about the EC50 (MALME-3M) of the same compound?
Answer: 5.09 µM

Question: And the EC50 (NCI-H322M)?
Answer: 4.28 µM

Question: What about the EC50 (SF-539) of the same compound?
Answer: 1110 nM

Question: And the EC50 (NCI-H522)?
Answer: 1500 nM

Question: And the EC50 (TF-1)?
Answer: 5.46 µM

Question: And the EC50 (Raji)?
Answer: 1880 nM

Question: What about the EC50 (SNB-75) of the same compound?
Answer: 2310 nM

Question: What about the EC50 (NC37) of the same compound?
Answer: 1260 nM

Question: And the inhibition at 1 µM (M1 Muscarinic receptor)?
Answer: 98%

Question: And the “% inhibition @ 1 uM” value [1]?
Answer: 49%

Question: And the EC50 (CCRF-CEM; Homo sapiens, 48 h)?
Answer: 630 nM

Question: What about the EC50 (CCRF-CEM; 48 hours) of the same compound?
Answer: 1220 nM

Question: What about the EC50 (SR; Homo sapiens, 48 h) of the same compound?
Answer: 914 nM

Question: What about the EC50 (SR; 48 hours) of the same compound?
Answer: 1300 nM

Question: And the EC50 (HOP-92; 48 hours)?
Answer: 1960 nM

Question: And the EC50 (HOP-92; Homo sapiens, HOP-92, 48 h)?
Answer: 1800 nM

Question: And the inhibition at 1 µM (M4 Muscarinic receptor)?
Answer: 87%
